Results: US10434079B2, “Compositions and methods for the treatment of fatty acid metabolism disorders” (The Children's Hospital of Philadelphia, priority 2013, dated 2019)

Columns and labels:
[1] = test system: β-oxidation of fatty acids; test: Measurement of β-oxidation: 3H-labeled palmitoyl-CoA oxidation in liver homogenates of treated ob/ob mice; assay type: in vivo, mouse; conditions: GSNO-injected ob/ob mice (i.p.)
Procedure: (1957) J. Biol. Chem., 226:497-509). The aqueous phase was collected, and proteins were precipitated by the addition of 10% TCA followed by centrifugation at 8000 g for 10 minutes at room temperature. Remaining radioactive palmitoyl-CoA was eliminated by strong anion exchange chromatography with AG 1-X8 formate resin (Life Science). The effluent containing the ^3H2O was collected and used for scintillation counting. Each experiment was coupled with a background measurement, a sample containing no protein. The background count number was subtracted from each measurement corresponding to analysis samples. Leptin-deficient mice develop liver steatosis spontaneously under normal chow diet starting at 4 to 5 weeks of life that is characterized by a diminished rate of palmitate oxidation and accumulation of fat droplets in the form of triglycerides within the hepatocytes (Brix et al. (2002) Mol. Genet. Metab., 75:219-226; de Oliveira et al. (2008) J. Am. Coll. Nutr., 27:299-305). […] This significant reduction in the rate of palmitoyl-CoA oxidation indicated a deficiency in mitochondrial β-oxidation of fatty acids. […]

VLCAD = molecular target: T1, VLCAD (Mus musculus, UniProt P50544); test: Quantification of S-nitrosylated VLCAD by organomercury capture in liver of treated mice; assay type: in vivo; design: Liver homogenate (final concentration of 0.03 μg/μl) or cell lysate; from tissue; host or cells: mouse liver (C57BL/6J wild-type, ob/ob, eNOS-/-); conditions: ob/ob mouse liver, from 25% S-nitrosylated VLCAD
T1 sequence (P50544 42-656): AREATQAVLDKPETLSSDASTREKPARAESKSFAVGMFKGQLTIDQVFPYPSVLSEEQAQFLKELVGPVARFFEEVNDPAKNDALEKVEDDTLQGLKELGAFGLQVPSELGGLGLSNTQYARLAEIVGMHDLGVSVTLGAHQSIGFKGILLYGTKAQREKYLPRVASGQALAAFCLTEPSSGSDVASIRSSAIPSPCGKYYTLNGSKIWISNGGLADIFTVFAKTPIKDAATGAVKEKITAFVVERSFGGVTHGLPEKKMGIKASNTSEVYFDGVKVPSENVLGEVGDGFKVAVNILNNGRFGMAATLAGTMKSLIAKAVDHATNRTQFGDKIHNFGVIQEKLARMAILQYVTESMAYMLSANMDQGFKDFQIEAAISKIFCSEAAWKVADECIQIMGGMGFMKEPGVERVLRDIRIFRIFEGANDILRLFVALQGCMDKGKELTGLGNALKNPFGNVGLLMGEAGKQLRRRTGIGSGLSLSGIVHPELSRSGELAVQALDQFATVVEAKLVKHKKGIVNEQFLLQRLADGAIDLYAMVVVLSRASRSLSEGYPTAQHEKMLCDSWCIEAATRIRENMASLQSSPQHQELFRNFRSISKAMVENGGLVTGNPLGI
Procedure: A detailed experimental procedure for the preparation and activation of columns, homogenate preparation for reaction with organic mercury resin, has been described (Doulias et al. (2010) Proc. Natl. Acad. Sci., 107:16958-16963). Three biological replicates from each organ were analyzed. […] The false identification rate was <6% for brain and <3% for all other organs. For washes, stringent conditions were selected due to the differences in lipid content among the six organs. Columns were initially washed with 50 bed volumes of 50 mM tris-HCl (pH 7.4) containing 300 mM NaCl and 0.5% SDS, followed by 50 bed volumes of the same buffer containing 0.05% SDS. Columns were washed with 50 bed volumes of 50 mM tris-HCl containing 300 mM NaCl (pH 7.4), 1% Triton X-100, and 1 M urea, followed by 50 bed volumes of the same buffer containing 0.1% Triton X-100 and 0.1 M urea. Finally, columns were washed with 200 bed volumes of water before proteins were eluted with 10 ml of 50 mM β-mercaptoethanol in water. Samples were concentrated and analyzed by gel-LC (liquid chromatography)-MS/MS analysis. For on-column digestion after the final wash with water, the columns were washed with 10 bed volumes of 0.1 M ammonium bicarbonate. Bound proteins were subjected to digestion by the addition of Trypsin Gold (1 μg/ml) (Promega) in one bed volume of 0.1 M […] in the dark for 16 hours at room temperature. […]

increase of catalytic efficiency (kcat/KM) of S-nitrosylated VLCAD vs unmodified protein (VLCAD): 29 fold
Structure (SMILES): N[C@@H](CCC(=O)N[C@@H](CSN=O)C(=O)NCC(=O)O)C(=O)O [GSNO, S-nitrosoglutathione]
palmitoyl-CoA oxidation rate compared with PBS-injected ob/ob mice [1]: significantly increased rate
